ChEMBL document CHEMBL1153322, “Identification of novel and orally active spiroindoline NPY Y5 receptor antagonists” (Bioorg Med Chem Lett, 2009)
pIC50: −log10 of the molar value. Active and inactive are the calls of the source. The calls are words filed in the database; no cut-off is given here.

Columns and labels:
[1] = molecular target: T1, Neuropeptide Y receptor type 5 (Homo sapiens, UniProt Q15761); assay: Displacement of [125I]PYY from human recombinant Y5 receptor expressed in mouse LMtk cells; format: cell-based
T1 sequence (Q15761 whole entry): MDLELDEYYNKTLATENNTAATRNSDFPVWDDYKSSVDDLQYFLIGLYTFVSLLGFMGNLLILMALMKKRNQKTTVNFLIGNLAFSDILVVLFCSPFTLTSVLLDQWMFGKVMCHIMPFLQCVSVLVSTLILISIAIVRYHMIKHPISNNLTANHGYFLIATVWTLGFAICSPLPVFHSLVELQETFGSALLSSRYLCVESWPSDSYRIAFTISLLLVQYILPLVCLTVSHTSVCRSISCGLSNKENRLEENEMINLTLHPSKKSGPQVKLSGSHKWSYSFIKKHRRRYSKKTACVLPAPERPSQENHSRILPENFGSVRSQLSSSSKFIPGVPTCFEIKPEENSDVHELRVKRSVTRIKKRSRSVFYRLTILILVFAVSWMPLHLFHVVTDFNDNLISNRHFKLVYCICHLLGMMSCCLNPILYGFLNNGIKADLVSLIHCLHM

[2] = Ratio of drug level in brain to plasma of rat at 3 mg/kg, iv after 10 mins; format: ADME, organism-based; design: dose 3 mg/kg, route intravenous; conditions: brain and plasma, read-out: BPR
[3] = Ratio of drug level in brain to plasma of rat at 3 mg/kg, iv after 60 mins; format: ADME, organism-based; design: dose 3 mg/kg, route intravenous; conditions: brain and plasma, read-out: BPR
[4] = Oral bioavailability in rat at 10 mg/kg; format: ADME, organism-based; conditions: in vivo
[5] = Solubility at pH 1; format: physicochemical; conditions: buffer
[6] = Solubility at pH 5; format: physicochemical; conditions: buffer
[7] = Solubility at pH 3; format: physicochemical; conditions: buffer
[8] = Lipophilicity, log D at pH 7.4; format: physicochemical; conditions: buffer
[9] = Solubility at pH 7; format: physicochemical; conditions: buffer
Rattus norvegicus [10] = assay: Inhibition of bovine-pancreatic polypeptide-induced food intake in Sprague-Dawley rat at 30 mg/kg, po measured for 2 hrs; format: functional, organism-based; design: dose 30 mg/kg
Rattus norvegicus [11] = assay: Inhibition of bovine-pancreatic polypeptide-induced food intake in po dosed Sprague-Dawley rat assessed as minimum effective dose measured for 2 hrs; format: functional; conditions: read-out: MED
Rattus norvegicus [12] = assay: Toxicity in Sprague-Dawley rat assessed as sedation at 30 mg/kg, po; format: organism-based; design: dose 30 mg/kg, route oral; conditions: in vivo

| pIC50 [1] | bioavailability [4] | SMILES | further results |
| --- | --- | --- | --- |
| 8.01 |  | CS(=O)(=O)N1CC2(CCN(C(=O)Nc3nccc(-c4ccccc4)n3)CC2)c2ccccc21 |  |
| 9.07 | 0% | CS(=O)(=O)N1CC2(CCN(C(=O)Nc3ccc(-c4ccccc4)cc3)CC2)c2ccccc21 | solubility [5]: < 0.01 µg/mL; Kp at 10 min [2]: 1.3; solubility [6]: < 0.01 µg/mL; solubility [7]: < 0.01 µg/mL; logD [8]: > 4; Kp at 1 h [3]: 1.93; solubility [9]: < 0.01 µg/mL |
| 9.01 | 0% | CS(=O)(=O)N1CC2(CCN(C(=O)Nc3cnc(-c4ccccc4)cn3)CC2)c2ccccc21 |  |
| 9.09 | 0% | CS(=O)(=O)N1CC2(CCN(C(=O)Nc3ccc(-c4ccccc4)nc3)CC2)c2ccccc21 |  |
| 9.02 | 0% | CS(=O)(=O)N1CC2(CCN(C(=O)Nc3ccc(-c4ccccc4)cn3)CC2)c2ccccc21 |  |
| 9.24 | 24% | CS(=O)(=O)N1CC2(CCN(C(=O)Nc3ncc(-c4ccccc4)cn3)CC2)c2ccccc21 | Kp at 10 min [2]: 0.14; Kp at 1 h [3]: 0.07 |
| 8.89 |  | CS(=O)(=O)N1CC2(CCN(C(=O)Nc3cccc(-c4ccccc4)c3)CC2)c2ccccc21 |  |
| 8.52 | 20% | CS(=O)(=O)N1CC2(CCN(C(=O)Nc3ccc(-c4ccccc4)nn3)CC2)c2ccccc21 | Kp at 10 min [2]: 0.42; Kp at 1 h [3]: 0.32 |
| 6.37 |  | CS(=O)(=O)N1CC2(CCN(C(=O)Nc3ccccc3-c3ccccc3)CC2)c2ccccc21 |  |
| 8.12 |  | CS(=O)(=O)N1CC2(CCN(C(=O)Nc3ccnc(-c4ccccc4)n3)CC2)c2ccccc21 |  |
| 9.07 | 0% | CS(=O)(=O)N1CC2(CCN(C(=O)Nc3cnc(-c4ccccc4)nc3)CC2)c2ccccc21 |  |

The next lines start with the compound.

| SMILES | pIC50 [1] | bioavailability [4] | further results |
| --- | --- | --- | --- |
| CC(=O)c1ccc(NC(=O)N2CCC3(CC2)CN(S(N)(=O)=O)c2ccccc23)cc1 | 8.70 |  |  |
| CS(=O)(=O)N1CC2(CCN(C(=O)Nc3cccc(-c4ccncc4)c3)CC2)c2ccccc21 | 7.64 |  |  |
| CS(=O)(=O)N1C[C@]2(CC[C@@H](C(=O)Nc3ccc(-c4ccccc4)cc3)CC2)c2ccccc21 | 6.70 |  |  |
| CCCCc1ccc(NC(=O)N2CCC3(CC2)CN(S(C)(=O)=O)c2ccccc23)cc1 | 8.92 |  |  |
| NS(=O)(=O)N1CC2(CCN(C(=O)Nc3ccccc3Cl)CC2)c2ccccc21 | 8.30 |  |  |
| CS(=O)(=O)N1CC2(CCN(C(=O)Nc3ccc(-c4cccnc4)cc3)CC2)c2ccccc21 | 8.68 | 47% | Kp at 10 min [2]: 0.13; Kp at 1 h [3]: 0.11 |
| CS(=O)(=O)N1CC2(CCN(C(=O)Cc3ccc(-c4ccccc4)cc3)CC2)c2ccccc21 | 6.74 |  |  |
| CS(=O)(=O)N1CC2(CCN(C(=O)Nc3ccc(Cl)c(Cl)c3)CC2)c2ccccc21 | 9.70 |  |  |
| O=C(Nc1cc(-c2ccc(Cl)cc2)n[nH]1)C1Cc2ccccc2C1 | 7.23 |  |  |
| CS(=O)(=O)N1CC2(CCN(C(=O)Nc3ccc(-c4ccccn4)cc3)CC2)c2ccccc21 | 8.52 | 12% | Kp at 10 min [2]: 0.23; Kp at 1 h [3]: 0.24 |
| NS(=O)(=O)N1CC2(CCN(C(=O)Nc3ccc(Oc4ccccc4)cc3)CC2)c2ccccc21 | 8.52 |  |  |
| CS(=O)(=O)Nc1ccccc1N1CCN(C(=O)Nc2cc(-c3ccc(Cl)cc3)n[nH]2)CC1 | 8.85 |  |  |
| CS(=O)(=O)N1CC2(CCN(C(=O)Nc3ccc(-c4ccncc4)cc3)CC2)c2ccccc21 | 8.39 | 53% | Kp at 10 min [2]: 0.12; Activity (Rattus norvegicus [10]): Active; minimal effective dose (Rattus norvegicus [11]): 10 mg/kg; Kp at 1 h [3]: 0.12; Activity (Rattus norvegicus [12]): Non-toxic |
| NS(=O)(=O)N1CC2(CCN(C(=O)Nc3ccc(Cl)c(Cl)c3)CC2)c2ccccc21 | 8.40 |  |  |
| CS(=O)(=O)N1C[C@]2(CC[C@H](C(=O)Nc3ccc(-c4ccccc4)cc3)CC2)c2ccccc21 | 8.82 |  |  |
